Test results published in patent US12593845B2 (priority 2019, dated 2026).

Tests used:
Aspergillus niger = assay: Antimicrobial test against Aspergillus niger; format: cell-based; settings: 96 h, Vogel medium, 25° C., 4 days in the dark, turbidity at 405 nm, read-out: growth inhibition rate
Experimental: Spores of Aspergillus niger were added to and dispersed in a Vogel medium, and a dihydropyrimidine compound dissolved in dimethyl sulfoxide was added and mixed thereto at 25 ppm. The resulting solution was dispensed onto a 96-well microplate and cultivated in the dark at 25° C. for 4 days.
After the cultivation, the turbidity at a wavelength of 405 nm was measured by a microplate reader and compared with that in the untreated case to determine the growth inhibition of Aspergillus niger (%) was determined.

[1] = system: wheat powdery mildew pathogen (Erysiphe graminis f. sp. tritici); assay: Wheat powdery mildew control test; format: in vivo; settings: Blumeria graminis, 144 h; 125 ppm drug solution sprayed onto wheat seedlings (Chihoku); lesion area ratio 6 days after inoculation
Experimental: (§1) 5 parts by weight of the dihydropyrimidine compound of the present invention, 93.5 parts by weight of N,N-dimethylformamide, and 1.5 parts by weight of polyoxyethylene sorbitan monolaurate (TWEEN® 20) were mixed and dissolved to obtain an emulsion (I) including 5% of an active ingredient.
(§2) The control value was calculated by the following expression. Control value (%)=100−{lesion area ratio in treated group/lesion area ratio in untreated group}×100 [Expression 1]
Water was added to the emulsion (I) such that the concentration of the dihydropyrimidine compound reached 125 ppm to dissolve the emulsion, and a drug solution was obtained. Subsequently, the drug solution was sprayed onto wheat seedlings (variety: “Chihoku”, leaf stage: 1 to 2) cultivated in seedling pots. After air drying, conidiospores of a wheat powdery mildew pathogen (Erysiphe graminis f. sp. tritici) were sprinkled thereon for inoculation (treated group). As a control, wheat seedlings that were not sprayed with the drug solution were inoculated in the same manner as described above (untreated group). The seedlings were left to stand in a greenhouse at 20° C.
On the 6 days after the inoculation, the leaves of the wheat seedlings were visually observed to determine the lesion area ratio, and the control value was calculated.

[2] = system: wheat brown rust pathogen (Puccinia recondita); assay: Wheat brown rust control test; format: in vivo; settings: 288 h, 125 ppm drug solution sprayed onto wheat seedlings (Norin 61), lesion area ratio 12 days after inoculation
Experimental: as §1, §2
Water was added to the emulsion (I) such that the concentration of the dihydropyrimidine compound reached 125 ppm to dissolve the emulsion, and a drug solution was obtained. Subsequently, the drug solution was sprayed onto wheat seedlings (variety: “Norin 61”, leaf stage: 1 to 2) cultivated in seedling pots. After air drying, uredospores of a wheat brown rust pathogen (Puccinia recondita) were sprinkled on wheat seedlings sprayed with the drug solution for inoculation (treated group). As a control, wheat seedlings that were not sprayed with the drug solution were inoculated in the same manner as described above (untreated group). The seedlings were left to stand in a greenhouse at 20° C.
On the 12 days after the inoculation, the leaves of the wheat seedlings were visually observed to determine the lesion area ratio, and the control value was calculated.

[3] = system: apple scab pathogen (Venturia inaequalis); assay: Apple scab control test; format: in vivo; settings: 336 h, 125 ppm drug solution sprayed onto apple seedlings (Orin), lesion area ratio 2 weeks after inoculation
Experimental: as §1, §2
Water was added to the emulsion (I) such that the concentration of the dihydropyrimidine compound reached 125 ppm to dissolve the emulsion, and a drug solution was obtained. Subsequently, the drug solution was sprayed onto apple seedlings (variety: “Orin”, leaf stage: 3 to 4) cultivated in seedling pots. After air drying, the seedlings were inoculated with conidiospores of an apple scab pathogen (Venturia inaequalis) (treated group). As a control, apple seedlings that were not sprayed with the drug solution were inoculated in the same manner (untreated group). The seedlings were left to stand in a humidified room at 20° C. using a 12 hour light/dark cycle.
On the day 2 weeks after the inoculation, the leaves of the apple seedlings were visually observed to determine the lesion area ratio, and the control value was calculated.

[4] = system: wheat powdery mildew pathogen (Erysiphe graminis f. sp. tritici); assay: Wheat powdery mildew soil irrigation treatment test; format: in vivo; settings: Blumeria graminis, 168 h; soil irrigation with 10 ml of 100 ppm drug solution per pot, wheat (Chihoku); inoculation after 8 to 10 days; lesion area ratio 7 days after inoculation
Experimental: as §1, §2
Pots (5.5 cm×5.5 cm) in which wheat seeds (variety: “Chihoku”) were disseminated were irrigated with 10 ml of a drug solution prepared by adding water to the emulsion (I) so as to have a concentration of the dihydropyrimidine compound of 100 ppm. After 8 to 10 days, conidiospores of a wheat powdery mildew pathogen (Erysiphe graminis f. sp. tritici) were sprinkled thereon for inoculation (treated group). As a control, wheat seedlings that were not treated with the drug were inoculated in the same manner as described above (untreated group). The seedlings were left to stand in a greenhouse at 20° C.
(§3) On the 7 days after the inoculation, the leaves of the wheat seedlings were visually observed to determine the lesion area ratio, and the control value was calculated.

[5] = system: wheat powdery mildew pathogen (Erysiphe graminis f. sp. tritici); assay: Wheat powdery mildew seed treatment test; format: in vivo; settings: Blumeria graminis, 168 h; seed treatment 100 g/100 kg wheat seeds (Chihoku); inoculation after 8 to 10 days; lesion area ratio 7 days after inoculation
Experimental: as §1, §2
The emulsion (I) was used to treat seeds such that (weight of dihydropyrimidine compound)/(weight of seeds) reached 100 g/100 kg based on the wheat seeds (variety: “Chihoku”). These seeds were disseminated in pots, and after 8 to 10 days, conidiospores of a wheat powdery mildew pathogen (Erysiphe graminis f. sp. tritici) were sprinkled thereon for inoculation (treated group). As a control, wheat seedlings that were not treated with the drug were inoculated in the same manner as described above (untreated group). The seedlings were left to stand in a greenhouse at 20° C.
as §3

SMILES | inhibition at 25 ppm (Aspergillus niger) | pest or weed control at 125 ppm [1] | pest or weed control at 125 ppm [2] | pest or weed control at 125 ppm [3] | pest or weed control at 100 ppm [4] | pest or weed control at 100 g/100 kg seed [5]
COc1ccc(F)cc1C(Cn1cc(/C(C)=N/OC(C)C)c(=O)n(CC(C)(C)C(=O)NC(C)C)c1=O)OCCC#N (stereo not shown) [A-1] | ≥ 50% | ≥ 75% | ≥ 75% | ≥ 75% |  | 
COc1ccc(F)cc1C(O)Cn1cc(/C(C)=N/OC(C)C)c(=O)n(CC(C)(C)C(=O)NC(C)C)c1=O (stereo not shown) [A-2] |  | ≥ 75% | ≥ 75% | ≥ 75% |  | 
COc1ccc(F)cc1C(Cn1cc(C=NOCC(F)F)c(=O)n(C(C)C(=O)NC(C)C)c1=O)OCCC#N (stereo not shown) [A-10] |  | ≥ 75% | ≥ 75% | ≥ 75% |  | 
CCCON=Cc1cn(CC(OCCC#N)c2cc(F)ccc2OC)c(=O)n(C(C)C(=O)NC(C)C)c1=O (stereo not shown) [A-11] |  | ≥ 75% | ≥ 75% | ≥ 75% |  | 
CCON=Cc1cn(CC(OCCC#N)c2cc(F)ccc2OC)c(=O)n(CCNC(=O)C(C)C)c1=O (stereo not shown) [A-17] |  | ≥ 75% | ≥ 75% | ≥ 75% |  | 
CCO/N=C(\C)c1cn(CC(O)c2cc(F)ccc2OC)c(=O)n(CC(C)(C)C(=O)NC(C)C)c1=O (stereo not shown) [A-25] |  |  | ≥ 75% | ≥ 75% |  | 
CCO/N=C(\C)c1cn(CC(O)c2cc(F)ccc2OC)c(=O)n(C2CCCC2NC(=O)C(C)C)c1=O (stereo not shown) [A-48] |  | ≥ 75% | ≥ 75% | ≥ 75% |  | 
COc1ccccc1C(O)Cn1cc(/C(C)=N/OC(C)C)c(=O)n(C[C@H](C)NC(=O)C(C)C)c1=O (stereo partly shown) [A-58] | ≥ 50% | ≥ 75% |  | ≥ 75% | ≥ 75% | ≥ 75%
COc1ccc(F)cc1C(Cn1cc(C=NOC(C)C)c(=O)n(C(C)C(=O)N2CCCCC2)c1=O)OCCC#N (stereo not shown) [A-69] |  | ≥ 75% | ≥ 75% |  |  | 
C=C1CCN(C(=O)C(C)n2c(=O)c(C=NOC(C)C)cn(CC(O)c3cc(F)ccc3OC)c2=O)CC1 (stereo not shown) [A-70] |  | ≥ 75% | ≥ 75% | ≥ 75% |  | 
CCON=Cc1cn(CC(OC)c2cc(F)ccc2OC)c(=O)n(C(C)C(=O)NC(C)C)c1=O (stereo not shown) [A-91] |  | ≥ 75% | ≥ 75% | ≥ 75% |  | 
COc1ccc(F)cc1C(Cn1cc(/C(C)=N/OC(C)C)c(=O)n(CCN(C)C(=O)C(C)C)c1=O)OC (stereo not shown) [A-99] |  | ≥ 75% | ≥ 75% | ≥ 75% |  | 
COc1ccc(F)cc1C(O)Cn1cc(/C(C)=N/OC(C)C)c(=O)n(C[C@@H](NC(=O)C(C)=O)C(C)C)c1=O (stereo partly shown) [C-73] | ≥ 50% |  |  |  | ≥ 75% | ≥ 75%
COCC(=O)N[C@H](Cn1c(=O)c(/C(C)=N/OC(C)C)cn(CC(O)c2cc(F)ccc2OC)c1=O)C(C)C (stereo partly shown) [C-83] | ≥ 50% |  |  |  | ≥ 75% | ≥ 75%
CC[C@@H](Cn1c(=O)c(/C(C)=N/OC(C)C)cn(CC(O)c2ccccc2OC)c1=O)NC(=O)C(C)C (stereo partly shown) [C-93] | ≥ 50% |  |  |  | ≥ 75% | ≥ 75%
CCCC(=O)N[C@H](Cn1c(=O)c(/C(C)=N/OC(C)C)cn(CC(O)c2ccccc2OC)c1=O)C(C)C (stereo partly shown) [C-95] | ≥ 50% |  |  |  | ≥ 75% | ≥ 75%
COc1ccccc1C(O)Cn1cc(/C(C)=N/OC(C)C)c(=O)n(C[C@@H](NC(=O)C2CC2)C(C)C)c1=O (stereo partly shown) [C-99] | ≥ 50% |  |  |  | ≥ 75% | ≥ 75%
C=C(C)C(=O)N[C@H](Cn1c(=O)c(/C(C)=N/OC(C)C)cn(CC(O)c2cc(F)ccc2OC)c1=O)C(C)C (stereo partly shown) [C-101] | ≥ 50% |  |  |  | ≥ 75% | ≥ 75%
CCO/N=C(\C)c1cn(CC(O)c2cc(F)ccc2OC)c(=O)n(C[C@@H](NC(=O)C(C)C)C(C)C)c1=O (stereo partly shown) [C-107] | ≥ 50% |  |  |  | ≥ 75% | ≥ 75%
CCC(=O)N[C@H](Cn1c(=O)c(/C(C)=N/OC(C)C)cn(CC(O)c2cc(F)ccc2OC)c1=O)C(C)C (stereo partly shown) [C-117] | ≥ 50% |  |  |  | ≥ 75% | ≥ 75%
COc1ccc(F)cc1C(O)Cn1cc(/C(C)=N/OC(C)C)c(=O)n(C[C@@H](NC(=O)C(C)C)C(C)(C)C)c1=O (stereo partly shown) [C-148] | ≥ 50% |  |  |  | ≥ 75% | ≥ 75%
CC[C@@H](Cn1c(=O)c(/C(C)=N/OC(C)C)cn(CC(O)c2cc(F)ccc2OC)c1=O)NC(=O)C(C)C (stereo partly shown) [C-154] | ≥ 50% |  |  |  | ≥ 75% | ≥ 75%
C=Cc1ccccc1C(O)Cn1cc(/C(C)=N/OC(C)C)c(=O)n(C[C@H](C)NC(=O)C(C)C)c1=O (stereo partly shown) [C-160] | ≥ 50% |  |  |  | ≥ 75% | ≥ 75%
COc1ccccc1C(O)Cn1cc(/C(C)=N/OC(C)C)c(=O)n(C[C@@H](NC(=O)C(C)C)C(C)C)c1=O (stereo partly shown) [C-170] | ≥ 50% |  |  |  | ≥ 75% | ≥ 75%
COc1ccc(F)cc1C(O)Cn1cc(/C(C)=N/OC(C)C)c(=O)n(C[C@H](C)NC(=O)N(C)C)c1=O (stereo partly shown) [C-179] | ≥ 50% |  |  |  | ≥ 75% | ≥ 75%
CCc1ccccc1C(O)Cn1cc(/C(C)=N/OC(C)C)c(=O)n(C[C@H](C)NC(=O)C(C)C)c1=O (stereo partly shown) [C-197] | ≥ 50% |  |  |  | ≥ 75% | ≥ 75%
COc1ccc(F)cc1C(O)Cn1cc(/C(C)=N/OC(C)C)c(=O)n(C[C@H](CC(C)C)NC(=O)C(C)C)c1=O (stereo partly shown) [C-199] | ≥ 50% |  |  |  | ≥ 75% | ≥ 75%
COc1ccc(F)cc1C(O)Cn1cc(/C(C)=N/OC(C)C)c(=O)n(C[C@@H](NC(C)=O)C(C)C)c1=O (stereo partly shown) [C-207] | ≥ 50% |  |  |  | ≥ 75% | ≥ 75%
COc1ccc(F)cc1C(O)Cn1cc(/C(C)=N/OC(C)C)c(=O)n(C[C@@H](NC(=O)C(C)C)C(C)C)c1=O (stereo partly shown) [C-210] | ≥ 50% |  |  |  | ≥ 75% | ≥ 75%
